Experimental data published in patent US12599625B2, “Treatment of ARDS and other conditions caused by acutely elevated cytokine levels and post ARDS chronic cytokine production using inhaled anesthetics” (priority 2021, dated 2026).

Test system: substance P
Assay: Clinical observation: relief of symptoms caused by acute and chronic excessive substance P
Assay type: in vivo, human

[N-]=[N+]=O [nitrous oxide]
relief of symptoms of COVID-19 and asthma (about 20 minutes of nitrous oxide every about 4-6 hours): may be relieved
relief of symptoms of COPD and asthma (nitrous oxide every about 4-6 hours): ray be relived
